Results on one compound are retold here after patent publication US12578331B2, “Monolayer of PBMCs or bone-marrow cells and uses thereof” (Mobius Biotechnology GmbH, priority 2014, dated 2026).

One assay relates to CD34+ or pSTAT5+ cells. Briefly: Personalized chemotherapy screen in PBMC monolayer of patients with myeloproliferative neoplasm / primary myelofibrosis: viability of CD34+ or pSTAT5+ cells. It counts as cell-based, human.
Assay [1] concerns primary myelofibrosis (PMF)-patients. The experiment in a line: Clinical treatment of primary myelofibrosis patients already on Ruxolitinib with added Azacitidine. The format is in vivo, human.
Description: PBMCs from peripheral blood of a patient diagnosed with primary myelofibrosis were purified over a ficol destiny gradient as described above following manufacture directions. The cells were plated as to the protocol in this application in 384-well black plastic imaging plates (corning) containing 350 FDA approved drugs in DMSO at 10 uM. The cells were plated at 20.000 cell/well in 50 ul of RPMI supplemented with 5% FCS 0.1% Pen/strep. The cells were incubated overnight and a viability dye was added (fixable live/dead green, Invitrogen following manufacture directions). The cells were fixed and permeablized in PBS containing 2% formaldehyde with 0.1% Tween-x114 for 10 minute at room temperature. The solution was then replaced with PBS containing antibody against CD34 and pSTAT5 (BD biosciences) for 1 hour. The solution was then replaced with PBS containing DAPI at manufacture recommended concentration. The plates were imaged at 10× on an Operetta (PE) automated confocal microscope in four channels using band-pass filter light separation (DAPI, GFP, PE, APC). Using an image analysis pipeline, the sensitivity of the cancer cells (CD34 and pSTAT5 positive) to each drug was compared to the sensitivity on the healthy cells (NOT CD34 and pSTAT5 positive). All results were normalized to the control, DMSO alone. […]

Description for CD34+ or pSTAT5+ cells: Method: PBMCs were cultured, fixed and stained as to protocol outlined in the above examples. 384-well plates were imaged using automated confocal microscope in 4-separate channels. We stained CD34-APC, pSTAT5-PE, GFP viability maker, and a DNA binding nuclear stain. Patient material was cultured on drugs for 18 hours before the addition of the viability marker. These images contained both clonal blasts (almost all CD34+ cells that are present in the peripheral blood,) activated cells (pSTAT5+ cells,) as well as inherently healthy cells from the same donor. […] PBMCs from peripheral blood of a patient diagnosed with primary myelofibrosis were purified over a ficol destiny gradient as described above following manufacture directions. The cells were plated as to the protocol in this application in 384-well black plastic imaging plates (corning) containing 350 FDA approved drugs in DMSO at 10 uM. The cells were plated at 20.000 cell/well in 50 ul of RPMI supplemented with 5% FCS 0.1% Pen/strep. The cells were incubated overnight and a viability dye was added (fixable live/dead green, Invitrogen following manufacture directions). The cells were fixed and permeablized in PBS containing 2% formaldehyde with 0.1% Tween-x114 for 10 minute at room temperature. The solution was then replaced with PBS containing antibody against CD34 and pSTAT5 (BD biosciences) for 1 hour. The solution was then replaced with PBS containing DAPI at manufacture recommended concentration. The plates were imaged at 10× on an Operetta (PE) automated confocal microscope in four channels using band-pass filter light separation (DAPI, GFP, PE, APC). Using an image analysis pipeline, the sensitivity of the cancer cells (CD34 and pSTAT5 positive) to each drug was compared to the sensitivity on the healthy cells (NOT CD34 and pSTAT5 positive). All results were normalized to the control, DMSO alone.

For `Nc1ncn([C@@H]2O[C@H](CO)[C@@H](O)[C@H]2O)c(=O)n1` [Azacitidine], in the assay on CD34+ or pSTAT5+ cells (MPN patient PBMCs, approximately 350 compounds, 18 hours on drugs, FIG. 6), the “viability of cells stained for CD34 or pSTAT5” value is “decreased the viability of cells expressing the biomarkers”. Moreover, in the assay on CD34+ or pSTAT5+ cells (same patient, FIG. 7), the “titration: viability of CD34+ cells compared to healthy cells and to DMSO” value is reported as “concentration dependent effects were seen”. Moreover, the “rank among compounds reducing percentage of viable cells expressing CD34 or pSTAT5” value in the assay with CD34+ or pSTAT5+ cells (two patients with early PMF or PMF, both treated with Ruxolitinib at the time of Pharmacoscopy, FIG. 10) was “Top drug or highly enriched drug”. Also, in assay [1] (patient undergoing treatment using Ruxolitinib, Azacitidine additionally used, FIG. 12D), the “number of diseased cells in patient” value is reported as “significantly reduced the number of diseased cells”. Further, in assay [1] (two PMF patients already on Ruxolitinib (Jakavi) treated with Azacitidine), the “clinical response of patients” value is given as “responding well”.
